This test has as its target HCV RdRp (NS5B) (UniProt P26663). It counts as biochemical, hepatitis C virus.

The values below come from US20070021434A1, “NON-NUCLEOSIDE ANTI-HEPACIVIRUS AGENTS AND USES THEREOF” (Migenix Inc., priority 2005, published 2007).

Peptide text beside a SMILES is read from it. * marks the point of attachment. Fmoc = O=C(OCC1c2ccccc2-c2ccccc21)*; Boc = CC(C)(C)OC(=O)*

Chain of HCV RdRp (NS5B) (P26663 whole entry, looked up): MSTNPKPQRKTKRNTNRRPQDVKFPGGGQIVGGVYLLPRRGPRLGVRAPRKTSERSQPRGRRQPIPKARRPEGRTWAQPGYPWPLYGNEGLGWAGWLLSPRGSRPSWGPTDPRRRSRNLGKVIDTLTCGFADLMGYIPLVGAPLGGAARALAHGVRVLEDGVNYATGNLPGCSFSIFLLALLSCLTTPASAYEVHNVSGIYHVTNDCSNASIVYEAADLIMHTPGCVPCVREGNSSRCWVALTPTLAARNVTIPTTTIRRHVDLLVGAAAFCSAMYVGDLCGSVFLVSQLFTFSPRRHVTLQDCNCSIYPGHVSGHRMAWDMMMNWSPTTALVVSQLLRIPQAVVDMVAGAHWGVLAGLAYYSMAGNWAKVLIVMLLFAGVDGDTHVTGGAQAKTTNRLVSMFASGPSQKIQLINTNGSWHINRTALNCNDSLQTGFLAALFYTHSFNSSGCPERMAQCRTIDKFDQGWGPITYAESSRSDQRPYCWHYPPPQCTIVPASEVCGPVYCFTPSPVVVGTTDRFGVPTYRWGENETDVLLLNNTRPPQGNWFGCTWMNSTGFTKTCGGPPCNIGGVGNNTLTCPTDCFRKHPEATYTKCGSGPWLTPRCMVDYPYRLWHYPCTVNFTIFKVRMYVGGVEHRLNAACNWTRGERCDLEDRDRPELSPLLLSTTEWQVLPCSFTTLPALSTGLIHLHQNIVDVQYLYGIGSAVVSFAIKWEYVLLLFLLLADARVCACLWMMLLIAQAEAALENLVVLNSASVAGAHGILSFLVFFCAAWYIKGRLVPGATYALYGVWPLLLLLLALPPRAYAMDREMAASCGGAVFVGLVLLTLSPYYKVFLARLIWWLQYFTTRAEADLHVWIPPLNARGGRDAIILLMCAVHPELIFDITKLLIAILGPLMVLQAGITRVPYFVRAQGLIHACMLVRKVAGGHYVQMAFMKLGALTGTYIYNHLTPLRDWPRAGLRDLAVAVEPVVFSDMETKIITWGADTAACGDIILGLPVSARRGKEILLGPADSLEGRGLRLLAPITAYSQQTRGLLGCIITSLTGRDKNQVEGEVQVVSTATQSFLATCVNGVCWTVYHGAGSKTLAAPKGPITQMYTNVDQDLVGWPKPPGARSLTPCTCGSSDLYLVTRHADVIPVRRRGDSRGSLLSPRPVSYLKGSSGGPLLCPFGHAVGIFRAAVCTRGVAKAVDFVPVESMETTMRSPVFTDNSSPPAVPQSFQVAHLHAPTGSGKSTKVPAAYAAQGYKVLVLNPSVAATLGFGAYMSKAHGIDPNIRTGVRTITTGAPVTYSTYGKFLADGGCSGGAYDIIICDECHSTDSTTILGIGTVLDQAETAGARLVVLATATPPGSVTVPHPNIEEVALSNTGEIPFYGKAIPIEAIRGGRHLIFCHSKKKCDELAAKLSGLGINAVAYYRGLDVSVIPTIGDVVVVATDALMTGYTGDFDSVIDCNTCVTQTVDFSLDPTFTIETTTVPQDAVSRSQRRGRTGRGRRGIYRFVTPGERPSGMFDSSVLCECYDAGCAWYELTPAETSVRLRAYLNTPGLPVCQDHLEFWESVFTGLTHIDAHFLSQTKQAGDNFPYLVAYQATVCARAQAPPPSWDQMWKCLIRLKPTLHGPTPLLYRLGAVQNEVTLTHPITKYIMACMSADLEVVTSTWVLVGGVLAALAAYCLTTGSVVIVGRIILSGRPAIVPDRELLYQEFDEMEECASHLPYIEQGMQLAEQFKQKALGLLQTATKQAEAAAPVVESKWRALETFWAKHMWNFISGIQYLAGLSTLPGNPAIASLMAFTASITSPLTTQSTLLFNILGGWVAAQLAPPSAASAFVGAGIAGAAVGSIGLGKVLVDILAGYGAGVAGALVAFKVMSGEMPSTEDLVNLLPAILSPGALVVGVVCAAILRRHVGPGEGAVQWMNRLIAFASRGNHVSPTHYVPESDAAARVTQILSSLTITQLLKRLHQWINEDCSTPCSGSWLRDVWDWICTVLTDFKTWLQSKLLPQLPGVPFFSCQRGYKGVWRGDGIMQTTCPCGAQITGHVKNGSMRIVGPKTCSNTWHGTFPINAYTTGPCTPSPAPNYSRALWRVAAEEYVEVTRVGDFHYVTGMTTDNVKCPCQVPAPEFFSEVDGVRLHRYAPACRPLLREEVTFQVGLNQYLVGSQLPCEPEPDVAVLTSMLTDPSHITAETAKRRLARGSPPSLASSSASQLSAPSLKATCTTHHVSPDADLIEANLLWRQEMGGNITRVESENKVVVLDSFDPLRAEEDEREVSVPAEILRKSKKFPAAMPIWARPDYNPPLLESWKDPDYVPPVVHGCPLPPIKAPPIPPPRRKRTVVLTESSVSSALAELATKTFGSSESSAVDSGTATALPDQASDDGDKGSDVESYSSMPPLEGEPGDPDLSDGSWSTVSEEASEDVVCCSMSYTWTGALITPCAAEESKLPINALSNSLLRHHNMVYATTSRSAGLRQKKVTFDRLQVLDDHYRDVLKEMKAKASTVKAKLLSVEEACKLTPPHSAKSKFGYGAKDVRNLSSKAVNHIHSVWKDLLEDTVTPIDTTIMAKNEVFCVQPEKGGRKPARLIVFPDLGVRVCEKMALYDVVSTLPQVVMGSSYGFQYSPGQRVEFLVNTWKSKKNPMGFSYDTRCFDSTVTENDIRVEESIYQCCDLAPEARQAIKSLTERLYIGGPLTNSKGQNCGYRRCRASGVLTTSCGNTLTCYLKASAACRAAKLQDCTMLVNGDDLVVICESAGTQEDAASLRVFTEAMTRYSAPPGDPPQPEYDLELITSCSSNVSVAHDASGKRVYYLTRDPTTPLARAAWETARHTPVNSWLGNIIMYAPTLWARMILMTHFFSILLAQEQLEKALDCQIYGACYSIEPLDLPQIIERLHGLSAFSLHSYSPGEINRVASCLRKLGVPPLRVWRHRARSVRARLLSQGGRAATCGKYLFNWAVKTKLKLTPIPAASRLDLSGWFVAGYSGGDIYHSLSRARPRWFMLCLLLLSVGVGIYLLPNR

`Cc1ccc(NC(=O)C(N)CNC(=O)OCC2c3ccccc3-c3ccccc32)cc1` [Compound 84, (R)-(2-AMINO-2-P-TOLYLCARBAMOYL-ETHYL)-CARBAMIC ACID 9H-FLUOREN-9-YLMETHYL ESTER] showed an IC50 of more than 50 µM. For `Cc1ccc(NC(=O)C(CCCCN)NC(=O)Cc2ccc(-c3ccccc3)cc2)cc1` [Compound 50, (S)-6-AMINO-2-(2-BIPHENYL-4-YL-ACETYLAMINO)-HEXANOIC ACID P-TOLYLAMIDE] the value was more than 50 µM; for `Cc1cc2cc(NC(=O)[C@H](CCCNC(=O)CN)NC(=O)Nc3ccc(OCc4ccccc4)cc3)ccc2[nH]1` [Compound 296, (S)-5-(2-AMINO-ACETYLAMINO)-2-[3-(4-BENZYLOXY-PHENYL)-UREIDO]-PENTANOIC ACID (2-METHYL-1H-INDOL-5-YL)-AMIDE], 10 to 50 µM; for `Cc1ccc(NCC(=O)N[C@@H](CCCCN)C(=O)Nc2ccc(C)cc2)cc1` [Compound 356, (S)-6-AMINO-2-(2-P-TOLYLAMINO-ACETYLAMINO)-HEXANOIC ACID P-TOLYLAMIDE], more than 50 µM.

`Cc1ccc(NC(=O)C(CCCCN)NC(=O)CNCc2ccc(C(F)(F)F)cc2)cc1` [Compound 352, (S)-6-AMINO-2-[2-(4-TRIFLUOROMETHYL-BENZYLAMINO)-ACETYLAMINO]-HEXANOIC ACID P-TOLYLAMIDE] registered an IC50 of more than 50 µM.

Consider `COc1cccc(CNCC(=O)N[C@@H](CCCCN)C(=O)Nc2ccc(C)cc2)c1` [Compound 342, (S)-6-AMINO-2-[2-(3-METHOXY-BENZYLAMINO)-ACETYLAMINO]-HEXANOIC ACID P-TOLYLAMIDE], for which the IC50 is more than 50 µM. `Cc1ccc(NC(=O)C(CCCCN)NC(=O)NCCc2ccccc2)cc1` [Compound 134, (S)-6-AMINO-2-(3-PHENETHYL-UREIDO)-HEXANOIC ACID P-TOLYLAMIDE]: the IC50 is more than 50 µM. Under `CC(C)(C)c1ccc(NC(=O)[C@H](Cc2ccc(CN)cc2)NC(=O)Nc2ccc3c(c2)Cc2ccccc2-3)cc1` [Compound 152, (S)-3-(4-AMINOMETHYL-PHENYL)-N-(4-TERT-BUTYL-PHENYL)-2-[3-(9H-FLUOREN-2-YL)-UREIDO]-PROPIONAMIDE] stands less than 10 µM; under `Cc1ccc(NC(=O)C(CCCCN)NC(=O)CN(c2ccccc2)C2CCCCC2)cc1` [Compound 354, (S)-6-AMINO-2-[2-(CYCLOHEXYL-PHENYL-AMINO)-ACETYLAMINO]-HEXANOIC ACID P-TOLYLAMIDE], more than 50 µM; under `Cc1ccc(NC(=O)C(CCCN)NC(=O)OCC2c3ccccc3-c3ccccc32)cc1` [Compound 101, (S)-(4-AMINO-1-P-TOLYLCARBAMOYL-BUTYL)-CARBAMIC ACID 9H-FLUOREN-9-YLMETHYL ESTER], more than 50 µM.

With `NCCC[C@H](NC(=O)OCC1c2ccccc2-c2ccccc21)C(=O)Nc1ccc(C2CCCCC2)cc1` [Compound 200, (S)-[4-AMINO-1-(4-CYCLOHEXYL-PHENYLCARBAMOYL)-BUTYL]-CARBAMIC ACID 9H-FLUOREN-9-YLMETHYL ESTER], the IC50 is less than 10 µM. For `Cc1ccc(NC(=O)[C@H](CCCCN)NC(=O)Nc2ccc(OCc3ccncc3)cc2)cc1` [Compound 279, (S)-6-AMINO-2-{3-[4-(PYRIDIN-4-YLMETHOXY)-PHENYL]-UREIDO}-HEXANOIC ACID P-TOLYLAMIDE] the value was more than 50 µM; for `Cc1ccc(NC(=O)C2CCCN2C(=O)OCC2c3ccccc3-c3ccccc32)cc1` [Compound 86, (R)-2-P-TOLYLCARBAMOYL-PYRROLIDINE-1-CARBOXYLIC ACID 9H-FLUOREN-9-YLMETHYL ESTER], more than 50 µM; for `Cc1ccc(NC(=O)C2CN(C(=O)CN)CCN2C(=O)Nc2ccc(OCc3ccccc3)cc2)cc1` (racemic) [Compound 308, (±)-4-(2-AMINO-ACETYL)-PIPERAZINE-1,2-DICARBOXYLIC ACID 1-[(4-BENZYLOXY-PHENYL)-AMIDE]2-P-TOLYLAMIDE], more than 50 µM. Under `Cc1ccc(NC(=O)[C@H](CCCCN)NS(=O)(=O)c2cc(Cl)sc2Cl)cc1` [Compound 395, (S)-6-AMINO-2-(2,5-DICHLORO-THIOPHENE-3-SULFONYLAMINO)-HEXANOIC ACID P-TOLYLAMIDE] stands more than 50 µM; under `Cc1ccc(NC(=O)C(CCCCN)NC(=O)c2ccc(F)c3ccccc23)cc1` [Compound 64, (S)-4-FLUORO-NAPHTHALENE-1-CARBOXYLIC ACID (5-AMINO-1-P-TOLYLCARBAMOYL-PENTYL)-AMIDE], more than 50 µM. For `NCCCCCCNC(=O)C(NC(=O)Nc1ccc(OCc2ccccc2)cc1)c1ccccc1` [Compound 319, (S)-NR-(6-AMINO-HEXYL)-2-[3-(4-BENZYLOXY-PHENYL)-UREIDO]-2-PHENYL-ACETAMIDE] the value was less than 10 µM; for `Cc1ccc(NC(=O)[C@H](CCCCN)NC(=O)CNCCc2ccccc2)cc1` [Compound 334, (S)-6-AMINO-2-(2-PHENETHYLAMINO-ACETYLAMINO)-HEXANOIC ACID P-TOLYLAMIDE], more than 50 µM; for `Cc1ccc(NC(=O)C(CCCCN)NC(=O)Nc2ccc(N3CCCCC3)cc2)cc1` [Compound 269, (S)-6-AMINO-2-[3-(4-PIPERIDIN-1-YL-PHENYL)-UREIDO]-HEXANOIC ACID P-TOLYLAMIDE], more than 50 µM. With `Cc1ccc(NC(=O)C(Cc2cccs2)NC(=O)OCC2c3ccccc3-c3ccccc32)cc1` [Compound 381, (S)-(2-THIOPHEN-2-YL-1-P-TOLYLCARBAMOYL-ETHYL)-CARBAMIC ACID 9H-FLUOREN-9-YLMETHYL ESTER], the IC50 is more than 50 µM. Turning to `Cc1ccc(NC(=O)C(CCCNC(=O)C2CCCN2)NC(=O)OCC2c3ccccc3-c3ccccc32)cc1` [Compound 220, (S)-{4-[R-(PYRROLIDINE-2-CARBONYL)-AMINO]-1-P-TOLYLCARBAMOYL-BUTYL}-CARBAMIC ACID 9H-FLUOREN-9-YLMETHYL ESTER], the IC50 was more than 50 µM. For `Cc1ccc(NC(=O)C(CCCCN)NC(=O)Cc2cccc3ccccc23)cc1` [Compound 91, (S)-6-AMINO-2-(2-NAPHTHALEN-1-YL-ACETYLAMINO)-HEXANOIC ACID P-TOLYLAMIDE] the value was more than 50 µM; for `CC(=O)Nc1cccc(NC(=O)[C@H](CCCCN)NC(=O)OCC2c3ccccc3-c3ccccc32)c1` [Compound 231, (S)-[1-(3-ACETYLAMINO-PHENYLCARBAMOYL)-5-AMINO-PENTYL]-CARBAMIC ACID 9H-FLUOREN-9-YLMETHYL ESTER], more than 50 µM. `Cc1ccc(NC(=O)[C@H](CCCCN)NC(=O)OCC2c3ccccc3-c3ccccc32)cn1` [Compound 229, (S)-[5-AMINO-1-(6-METHYL-PYRIDIN-3-YLCARBAMOYL)-PENTYL]-CARBAMIC ACID 9H-FLUOREN-9-YLMETHYL ESTER] yielded a half-maximal inhibitory concentration (IC50) of more than 50 µM.

`COC(=O)[C@H](Cc1c[nH]c2ccccc12)NC(=O)[C@H](CCCCNC(=O)OC(C)(C)C)NC(=O)OCC1c2ccccc2-c2ccccc21` [Compound 30, (S)-2-[6-TERT-BUTOXYCARBONYLAMINO-2-(S)-((9H-FLUOREN-9-YLMETHOXYCARBONYL)AMINO)-HEXANOYL-AMINO]-3-(1H-INDOL-3-YL)-PROPIONIC ACID METHYL ESTER] (Fmoc-Lys(Boc)-Trp-OMe) yielded an IC50 of more than 50 µM.

As for `Cc1ccc(NC(=O)C(CCCCN)NC(=O)C(N)Cc2c[nH]c3ccccc23)cc1` [Compound 100, (S,S)-6-AMINO-2-[2-AMINO-3-(1H-INDOL-3-YL)-PROPIONYLAMINO]-HEXANOIC ACID P-TOLYLAMIDE], the half-maximal inhibitory concentration (IC50) was more than 50 µM. `Cc1ccc(NC(=O)C(CCCCN)NS(=O)(=O)c2cc(S(=O)(=O)c3ccccc3)cs2)cc1` [Compound 388, (S)-6-AMINO-2-(4-BENZENESULFONYL-THIOPHENE-2-SULFONYLAMINO)-HEXANOIC ACID P-TOLYLAMIDE] came in with an IC50 of more than 50 µM. Turning to `Cc1ccc(NC(=O)C(CCCCN)NC(=O)c2ccc3ccccc3c2)cc1` [Compound 51, (S)-NAPHTHALENE-2-CARBOXYLIC ACID (5-AMINO-1-P-TOLYLCARBAMOYL-PENTYL)-AMIDE], the IC50 is more than 50 µM. Under `Cc1cc2cc(NC(=O)[C@H](CCCNC(=O)CN)NC(=O)OCC3c4ccccc4-c4ccccc43)ccc2[nH]1` [Compound 238, (S)-[4-(2-AMINO-ACETYLAMINO)-1-(2-METHYL-1H-INDOL-5-YLCARBAMOYL)-BUTYL]-CARBAMIC ACID 9H-FLUOREN-9-YLMETHYL ESTER] stands less than 10 µM; under `Cc1ccc(NC(=O)C[C@H](CCCCN)NC(=O)Nc2ccc3c(c2)Cc2ccccc2-3)cc1` [Compound 247, (S)-7-AMINO-3-[3-(9H-FLUOREN-2-YL)-UREIDO]-HEPTANOIC ACID P-TOLYLAMIDE], 10 to 50 µM; under `Cc1ccc(NC(=O)C(CCCCN)NC(=O)c2ccc3c4c(cccc24)CC3)cc1` [Compound 67, (S)-ACENAPHTHENE-5-CARBOXYLIC ACID (5-AMINO-1-P-TOLYLCARBAMOYL-PENTYL)-AMIDE], more than 50 µM.

Compound `Cc1ccc(NC(=O)[C@H](CCCCN)NC(=O)CNCc2cccc(Cl)c2)cc1` [Compound 348, (S)-6-AMINO-2-[2-(3-CHLORO-BENZYLAMINO)-ACETYLAMINO]-HEXANOIC ACID P-TOLYLAMIDE] yielded an IC50 of more than 50 µM.

The compound `Cc1ccc(NC(=O)C(NC(=O)OCC2c3ccccc3-c3ccccc32)C(C)O)cc1` [Compound 376, (2+/−,3S)-(2-HYDROXY-1-P-TOLYLCARBAMOYL-PROPYL)-CARBAMIC ACID 9H-FLUOREN-9-YLMETHYL ESTER] yielded an IC50 of more than 50 µM. For `Cc1ccc(NC(=O)[C@@H](CCCN)NC(=O)Nc2ccc(OCc3ccccc3)cc2)cc1` [Compound 192, (R)-5-AMINO-2-[3-(4-BENZYLOXY-PHENYL)-UREIDO]-PENTANOIC ACID P-TOLYLAMIDE] the value was more than 50 µM; for `Cc1ccc(NC(=O)[C@H](CCCCN)NC(=O)CNc2ccc(F)cc2)cc1` [Compound 361, (S)-6-AMINO-2-[2-(4-FLUORO-PHENYLAMINO)-ACETYLAMINO]-HEXANOIC ACID P-TOLYLAMIDE], more than 50 µM; for `Cc1ccc(NC(=O)C(CCCCN)NC(=O)Nc2ccc(C(F)(F)F)cc2)cc1` [Compound 42, (S)-6-AMINO-2-[3-(4-TRIFLUOROMETHYL-PHENYL)-UREIDO]-HEXANOIC ACID P-TOLYLAMIDE], 10 to 50 µM.

Consider `NCCCC[C@H](NC(=O)NCc1ccccc1)C(=O)Nc1ccc(CN(C(=O)c2ccco2)C2CCCCC2)cc1` [Compound 153, (S)-FURAN-2-CARBOXYLIC ACID {4-[6-AMINO-2-(3-BENZYL-UREIDO)-HEXANOYLAMINO]-BENZYL}-CYCLOHEXYL-AMIDE], for which the IC50 is more than 50 µM.

Usually IC50 stands for the point on the concentration scale where inhibition reaches its midpoint. The low end stands for inhibition by little substance, the high end for a need for much substance.
